We go through 7 substances from US20230021365A1, “COMPOSITION COMPRISING P53-ACTIVATING PEPTIDE” (SUPADELIXIR INC., priority 2019, published 2023).

The test concerns interaction between p53 and POLII. Nature of the test: in situ PLA (proximity ligation assay) of physical binding between p53 and RNA Polymerase II (POLII) in HaCaT cells. The class given is cell-based, human. The settings on record: summary statement in the description. On the procedure: After treating cells with the peptides of the present invention, the effects thereof on the physical binding between p53 and RNA Polymerase II (POLII) were evaluated through an in situ PLA (proximity ligation assay) method. HaCaT cells (human keratinocytes, CLS) were added at 4.5×10^4 cells per well, along with a DMEM containing 10% fetal bovine serum, to each well of a 24-well microplate and then cultured at 37° C. in a 5% CO2 incubator for 24 hours. The peptide solutions of Example 2 were added thereto so that the concentration of each peptide in the medium was 20 μM, followed by incubating for 1 hour under the same condition. […] The cells of each well were washed with PBS, fixed by treating with 2% formaldehyde for 15 minutes, and then treated with 0.1% TritonX-100 for 5 minutes to increase antibody permeability into the cells. Anti-p53 polyclonal antibody (Abcam, UK) and anti-POLII polyclonal antibody (Santa Cruz, Calif., USA) were added thereto. After the PLA probe was added thereto using the in situ PLA kit (Sigma-Aldrich), hybridization, ligation, amplification and mounting steps were carried out according to the manufacturer's protocol. Each physical interaction between p53 and POLII was quantified by measuring the luminescence signals (PLA signals) detected in each cell with a confocal laser microscope (Olympus fluoview FW1000; Olympus, Tokyo, Japan).
As for Leu-Ala-Asp (LAD) [Pep 4], the “activity in decreasing the interaction between p53 and MDM2 and thus increasing the interaction between p53 and POLII” value is listed as “particularly excellent activity”.
As for Leu-Arg-Asp (LRD) [Pep 6], the entry is “particularly excellent activity”.
As for Leu-Gly-Asp (LGD) [Pep 3], the entry is “particularly excellent activity”.
As for Leu-Lys-Asp (LKD) [Pep 7], the entry is “particularly excellent activity”; as for Leu-Ser-Asp (LSD) [Pep 2], “particularly excellent activity”.
As to Leu-Thr-Asp (LTD) [Pep 18], the “activity in decreasing the interaction between p53 and MDM2 and thus increasing the interaction between p53 and POLII” value is on record as “particularly excellent activity”.
Leu-Tyr-Asp (LYD) [Pep 9]: the “activity in decreasing the interaction between p53 and MDM2 and thus increasing the interaction between p53 and POLII” value is given as “particularly excellent activity”.
